Reference: paper PMC12439166, “Dietary flavonoids form supramolecular assemblies, alter biochemistry, and enhance cell resilience” (Frontiers in Nutrition, 2025)
“Also recorded” adds a separate entry of the source.

How the values were obtained:
[1] = biological target: T1, MAP/microtubule affinity-regulating kinase 4 (MARK4) (Homo sapiens, UniProt Q96L34); test: Enzyme activity assay (SAMDI-MS), MARK4; type: biochemical; conditions: 10 concentrations, 5 nM to 100 μM, compounds incubated with enzyme 30 min, result in words
T1 sequence (Q96L34 1-752): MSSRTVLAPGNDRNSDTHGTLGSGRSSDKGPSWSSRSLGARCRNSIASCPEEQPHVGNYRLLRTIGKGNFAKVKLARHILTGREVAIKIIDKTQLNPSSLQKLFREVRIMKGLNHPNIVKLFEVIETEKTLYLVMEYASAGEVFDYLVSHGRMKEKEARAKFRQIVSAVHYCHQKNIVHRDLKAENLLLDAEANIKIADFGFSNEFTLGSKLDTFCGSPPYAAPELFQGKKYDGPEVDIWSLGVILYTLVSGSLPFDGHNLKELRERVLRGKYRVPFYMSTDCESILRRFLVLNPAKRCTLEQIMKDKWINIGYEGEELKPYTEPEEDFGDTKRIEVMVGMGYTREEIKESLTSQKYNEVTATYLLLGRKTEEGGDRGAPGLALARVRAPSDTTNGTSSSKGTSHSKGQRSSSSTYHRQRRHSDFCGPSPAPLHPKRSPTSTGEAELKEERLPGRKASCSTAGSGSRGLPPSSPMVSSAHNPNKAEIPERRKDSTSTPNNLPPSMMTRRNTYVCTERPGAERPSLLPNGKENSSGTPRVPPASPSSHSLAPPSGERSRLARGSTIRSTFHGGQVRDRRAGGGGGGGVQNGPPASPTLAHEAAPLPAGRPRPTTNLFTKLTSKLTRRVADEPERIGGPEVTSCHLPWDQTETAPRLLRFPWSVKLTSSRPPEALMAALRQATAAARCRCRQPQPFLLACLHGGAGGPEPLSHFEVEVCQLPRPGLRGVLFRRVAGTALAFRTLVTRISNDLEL
Procedure: Enzyme screens were performed by SAMDI Tech (contract research organization); enzyme assays were performed in a 20 μL volume in 384-well low-volume polypropylene microtiter plates (Greiner Bio-One) at room temperature. The enzymes [Arginase 1 (ARG1), Lysine demethylase 4C (KDM4C), MAP/microtubule affinity-regulating kinase 4 (MARK4), Histone-Lysine N-methyltransferase (NSD2), Tyrosine-protein phosphatase non-receptor type 1 (PTP1B), and Sirtuin-3 (SIRT3)] were incubated with compounds for 30 min prior to initiation of the reaction by the addition of substrate and cofactors (if required). Reactions were quenched by the addition of 0.5% formic acid (final) with subsequent neutralization using 1% sodium bicarbonate (final). For SAMDI MS analysis, 2 μL of each reaction was transferred using a 384-channel automated liquid handler to SAMDI biochip arrays functionalized with a neutravidin-presenting self-assembled monolayer. The preparation of SAMDI biochip arrays has been previously described ([41], [42], [49]). The SAMDI arrays were incubated for 1 h in a humidified chamber to allow specific immobilization of the biotinylated substrates and products; they were then purified by washing with ultrafiltered water (50 μL/spot) and dried with compressed air. A matrix comprising α-Cyano-4-hydroxycinnamic acid in 80% acetonitrile: 20% aqueous ammonium citrate (10 mg/mL final) was applied in an automated format by dispensing 50 nL to each spot in the array. SAMDI MS was performed using reflector positive mode on an AB Sciex TOF-TOF 5800 System (AB Sciex, Framingham, MA) with 400 shots/spot analyzed in a random raster sampling. For data analysis, the area under the curves (AUCs) for the product peak and substrate peak were calculated using the TOF/TOF Series Explorer (AB Sciex), and the amount of product formed was calculated using the equation AUC product / (AUC product + AUC Substrate). Negative controls were pre-quenched with 0.5% formic acid (final). Lysozyme assay was performed using the manufacturer’s instructions (Biovision Lysozyme inhibitor screening kit K237). Flavonoids were acquired from Sigma-Aldrich and Seleckchem.
IC50 values of enzyme inhibition. Inhibition of the enzymes was measured at 10 concentration values in the range of 5 nM to 100 μM for each compound and enzyme, with two technical replicates; the percent inhibition values were determined by SAMDI software. Sigmoidal curves were fitted to the percent inhibition vs log10 (concentration) series, and IC50 values were determined at the crossing point of 50 % inhibition. […] First, for each IC50 value per compound and enzyme, a Z-score was calculated based on the log10 (IC50) value and that of the compounds that produced a successful readout for enzyme i , according to Equation 1: […]

human dermal fibroblasts = test: Protection of fibroblasts against ultraviolet radiation, cell viability by CellTiter-Glo; type: cell-based; conditions: 1 h pretreatment, 254 nm UV 20 mJ/cm^2, viability 24 h post-irradiation; result in words
Procedure: Human fibroblasts were obtained from Cell Applications Inc (Cat. # 106-05a) and were maintained in Dulbecco’s Modified Eagle medium (DMEM, Corning, Cat. #10-013-CV) with 10% fetal bovine serum (Gibco, Cat. #10082147) and 1% penicillin/streptomycin (Gibco, Cat. # 15070-063) in a humidified incubator with 5% CO2 at 37 °C. For ultraviolet radiation, fibroblasts were seeded in a 96-well plate at a density of 25,000 cells/well and maintained at 37 °C for 24 h. Cells were washed once with Hanks’ balanced salt solution (HBSS, Gibco, Cat. #14025-092), then treated for 1 h with different concentrations of compounds prepared in HBSS. Vitamin C (Sigma, Cat. # A5960) served as a positive control. Treated cells were exposed to ultraviolet light (UVP cross-linker, CL1000, 254 nm UV, 8 watts) at a total dose of 20 mJ/cm^2. Following irradiation, the HBSS was replaced with culture medium containing the same concentration of compounds as before irradiation, and cells were again maintained at 37 °C. Cell viability was measured at 24 h post-irradiation using CellTiter-Glo according to the manufacturer’s instructions (Promega, Cat.# G7571). Results were expressed as relative cell viability (%) with respect to control cells (cells without ultraviolet irradiation or compound treatment).

SMILES | inhibition of enzyme activity, MARK4 ([1]; listed as Quercetin) | inhibition of enzyme activity, MARK4 ([1]; listed as Quercitin) | protection against the loss of cell viability caused by UV radiation (human dermal fibroblasts) | inhibition of enzyme activity, MARK4 [1]
O=c1c(O)c(-c2ccc(O)c(O)c2)oc2cc(O)cc(O)c12 [quercetin] | inhibited | concentration-dependent inhibition | concentration-dependent protection | 
C[C@@H]1O[C@@H](Oc2c(-c3ccc(O)c(O)c3)oc3cc(O)cc(O)c3c2=O)[C@H](O)[C@H](O)[C@H]1O [quercitrin] |  |  | concentration-dependent protection | did not affect; also recorded: did not inhibit
O=c1c(O[C@@H]2O[C@H](CO)[C@@H](O)[C@H](O)[C@H]2O)c(-c2ccc(O)c(O)c2)oc2cc(O)cc(O)c12 [isoquercitrin] |  |  | concentration-dependent protection | inhibited
